This is an account of results in patent US20240165116A1, “ROCK2 INHIBITOR FOR THE TREATMENT OF VIRAL INFECTION” (Graviton Bioscience B.V., priority 2021, published 2024).

“Also recorded” adds a separate entry of the source.

Experiment [1] relates to SARS-CoV-2 (2019-nCoV/USA-WA1/2020 strain). The experiment is described as follows: Viral load in lung lysates of SARS-CoV-2 challenged human ACE2 transgenic mice. It counts as in vivo. The note with it: 300 mg/kg daily via oral gavage in 0.5% CMC-Na; initial viral loads 100, 1000, 10,000 pfu; compared with vehicle and Remdesivir (25 mg/kg subcutaneously). The procedure: FIGS. 6A, 6B, and 6C. Efficacy: Viral Load in Lung Lysates. […] Shown are viral copies/mg of lungs for initial viral loads of 100 pfu SARS-CoV2 (FIG. 6A), 1000 pfu SARS-CoV2 (FIG. 6B), and 10,000 pfu SARS-CoV2 (FIG. 6C). Groups from left to right: Vehicle, Formula XII (300 mg/kg), Remdesivir (RDV). Inserts: Formula XII (300 mg/kg) (left), Remdesivir (RDV) (right).
Human ACE2 transgenic mice from Jackson Laboratories (n=5 per group) were challenged at t=0 with SARS-CoV-2 at an initial viral load of 100 PFU, 1,000, or 10,000 pfu of 2019-nCoV/USA-WA1/2020 strain. This strain was isolated from an oropharyngeal swab from a patient with a respiratory illness who developed the clinical disease (COVID-19) in January 2020 in Washington, US (BEI Resources, NR-52281). […] The infected mice were dosed daily via oral gavage with (1) 0.5% sodium carboxymethyl cellulose (CMC-Na) (negative control), (2) 300 mg/kg Formula XII in 0.5% CMC-Na (test group), or (3) Remdesivir (RDV). RDV, an anti-viral reagent that acts as a nucleoside analog and inhibits the RNA-dependent RNA polymerase (RdRp) of coronaviruses including SARS-CoV-2, was used a positive control. […] The animals were monitored daily. […] The viral load in the lung was determined by qPCR detecting viral RNA in lung lysates.

For experiment [2] the test system is unchanged. The experiment is described as follows: In vitro SARS-CoV-2 prevention model: viral RNA in supernatant by qPCR. In kind it is cell-based. The note with it: Severe acute respiratory syndrome coronavirus 2; Calu-3 cells treated 2 h at 37° C., challenged with 10^2 PFU SARS-CoV-2 for 6 h, qPCR of supernatant at 48 h; calculated from best-fit values; read-out: EC50 (SARS-CoV-2 in supernatant, classical dose-response curve). The procedure:
FIG. 2. Efficacy: SARS-CoV-2 CPN in Supernatant. Immortalized human airway epithelial cells (Calu-3) were treated with the listed concentrations of the Formula XII compound for 2 h at 37° C. followed by challenge with SARS-CoV-2 for 6 h. After washing, the cells were maintained for 48 hours and viral infection was analyzed by qPCR of the supernatant. Each data point represents the mean of three replicates.
FIG. 3. Efficacy: Classical Dose-Response Curve. This figure provides the dose-response curve for the experiment described in Example 1 and FIG. 2.
A 50 mM stock solution of (6-(4-((4-(1H-pyrazol-4-yl)phenyl)amino)pyrimidin-2-yl)-1-methyl-1H-indol-2-yl)(3,3-difluoroazetidin-1-yl)methanone (Formula XII) in DMSO was diluted using PBS to Formula XII concentrations of 100 μM, 10 μM, 1 μM, 0.3 μM, 0.1 μM, and 0.03 μM. About 30,000 immortalized human airway epithelial cells (Calu-3) were grown to about 100,000 cells per well in a 96-well format. […]
Viral infection was analyzed by qPCR (qRT-PCR). […] Viral or host RNA levels in the supernatant were determined using the TaqPath™ 1-Step RT-qPCR Master Mix (Thermo Fisher) on CFX Connect Real-Time System (Bio-Rad) instrument using the following primers: Fwd: 5′-[…]-3; Rev: 5′-[…]-3′).
Datasets were analyzed and plotted in GraphPad Prism (version 9.0.2). […]

On to `Cn1c(C(=O)N2CC(F)(F)C2)cc2ccc(-c3nccc(Nc4ccc(-c5cn[nH]c5)cc4)n3)cc21` [Formula XII, (6-(4-((4-(1H-pyrazol-4-yl)phenyl)amino)pyrimidin-2-yl)-1-methyl-1H-indol-2-yl)(3,3-difluoroazetidin-1-yl)methanone], for which the “Viral load in the lung (viral copies/mg of lungs, qPCR of lung lysates)” value in experiment [1] was “significantly reduced viral load as compared to both the negative as well as the positive control; also recorded: reduces the spread of SARS-CoV2 in the lungs of mice in vivo”. Further, in experiment [2], the concentration for a half-maximal effect (EC50) (commonly the concentration that produces a half-maximal response) was 124 nM.
